In BindingDB's records for doi:10.1021/jm030817d (Glaxosmithkline Pharmaceuticals, 2003) one finds Ki data, which are given here for four compounds.

The target of this test is D(3) dopamine receptor (Homo sapiens, UniProt P35462). Nature of the test: Binding affinity against human Dopamine receptor D3 expressed in CHO cells by using [125I]iodosulpiride as radioligand.
Sequence of D(3) dopamine receptor (P35462 as listed by the source): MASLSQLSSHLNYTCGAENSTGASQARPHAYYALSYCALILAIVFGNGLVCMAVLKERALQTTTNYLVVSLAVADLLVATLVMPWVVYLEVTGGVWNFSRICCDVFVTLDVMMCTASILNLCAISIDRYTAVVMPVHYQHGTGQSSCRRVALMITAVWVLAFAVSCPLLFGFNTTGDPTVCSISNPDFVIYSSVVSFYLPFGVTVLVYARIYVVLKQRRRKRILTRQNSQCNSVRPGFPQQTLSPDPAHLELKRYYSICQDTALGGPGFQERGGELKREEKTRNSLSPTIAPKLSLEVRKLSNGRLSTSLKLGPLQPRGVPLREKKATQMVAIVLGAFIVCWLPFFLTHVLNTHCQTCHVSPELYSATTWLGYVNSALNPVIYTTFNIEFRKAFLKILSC
As for `CS(=O)(=O)Oc1ccc2c(c1)CCN(CC[C@H]1CC[C@H](NC(=O)C=Cc3cccc(F)c3)CC1)CC2`, the affinity, expressed as Ki, was 1.3 nM.

For the compound `COc1ccccc1C=CC(=O)N[C@H]1CC[C@H](CCN2CCc3ccc(OS(C)(=O)=O)cc3CC2)CC1`, affinity was put at a Ki of 1.3 nM.

`CS(=O)(=O)c1ccc2c(c1)CCN(CC[C@H]1CC[C@H](NC(=O)C=Cc3ccccc3F)CC1)CC2` yielded an inhibitory constant (Ki) of 1.3 nM.

The compound `CS(=O)(=O)Oc1ccc2c(c1)CCN(CC[C@H]1CC[C@H](NC(=O)C=Cc3ccccc3F)CC1)CC2` had a Ki of 1.3 nM.
